Measurements from ChEMBL document CHEMBL2086370 (J Med Chem, 2012).

Experiments:
[1] = test system: Brain; assay: Drug uptake in Harlan Sprague-Dawley rat brain at 3 ug/kg, iv after 10 mins by LC-MS/MS analysis; format: ADME, organism-based; conditions: in vivo, 0.003 mg/kg
[2] = Lipophilicity, log D of the compound at pH 7.4 by potentiometric method; format: physicochemical; conditions: buffer
[3] = test system: Brain; assay: Drug uptake in Harlan Sprague-Dawley rat brain at 3 ug/kg, iv up to 60 mins by LC-MS/MS analysis; conditions: in vivo, 1 h
[4] = biological target: Kappa-type opioid receptor (Homo sapiens, UniProt P41145); assay: biochemical
Sequence of Kappa-type opioid receptor (P41145 whole entry): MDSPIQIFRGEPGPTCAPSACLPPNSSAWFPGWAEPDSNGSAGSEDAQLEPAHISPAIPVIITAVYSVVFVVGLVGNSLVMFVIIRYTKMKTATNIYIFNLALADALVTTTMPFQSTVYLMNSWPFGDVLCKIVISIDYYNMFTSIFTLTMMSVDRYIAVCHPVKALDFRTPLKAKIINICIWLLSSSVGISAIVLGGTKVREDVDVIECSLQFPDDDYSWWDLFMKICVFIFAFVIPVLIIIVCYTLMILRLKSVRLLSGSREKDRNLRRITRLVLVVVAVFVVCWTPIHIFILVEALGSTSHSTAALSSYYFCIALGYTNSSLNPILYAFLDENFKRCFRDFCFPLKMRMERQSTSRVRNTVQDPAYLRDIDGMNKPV
Description: Displacement of [3H]diprenorphine from human cloned kappa type opioid receptor expressed in CHO cell membranes by scintillation counter

[5] = biological target: Mu-type opioid receptor (Homo sapiens, UniProt P35372); assay: Displacement of [3H]diprenorphine from human cloned mu type opioid receptor expressed in CHO cell membranes by scintillation counter
Sequence of Mu-type opioid receptor (P35372 whole entry): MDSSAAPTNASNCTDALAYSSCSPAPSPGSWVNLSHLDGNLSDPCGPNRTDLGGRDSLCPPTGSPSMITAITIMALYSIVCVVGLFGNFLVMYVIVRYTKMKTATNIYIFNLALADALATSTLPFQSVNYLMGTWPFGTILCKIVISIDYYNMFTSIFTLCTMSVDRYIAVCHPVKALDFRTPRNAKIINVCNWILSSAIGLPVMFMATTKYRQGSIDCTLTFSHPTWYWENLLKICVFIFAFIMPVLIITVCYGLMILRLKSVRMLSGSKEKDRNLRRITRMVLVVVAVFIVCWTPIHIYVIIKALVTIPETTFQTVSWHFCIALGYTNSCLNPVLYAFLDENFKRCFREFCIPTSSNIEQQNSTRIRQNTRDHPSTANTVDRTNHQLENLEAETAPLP

[6] = biological target: Delta-type opioid receptor (Homo sapiens, UniProt P41143); assay: biochemical
Sequence of Delta-type opioid receptor (P41143 whole entry): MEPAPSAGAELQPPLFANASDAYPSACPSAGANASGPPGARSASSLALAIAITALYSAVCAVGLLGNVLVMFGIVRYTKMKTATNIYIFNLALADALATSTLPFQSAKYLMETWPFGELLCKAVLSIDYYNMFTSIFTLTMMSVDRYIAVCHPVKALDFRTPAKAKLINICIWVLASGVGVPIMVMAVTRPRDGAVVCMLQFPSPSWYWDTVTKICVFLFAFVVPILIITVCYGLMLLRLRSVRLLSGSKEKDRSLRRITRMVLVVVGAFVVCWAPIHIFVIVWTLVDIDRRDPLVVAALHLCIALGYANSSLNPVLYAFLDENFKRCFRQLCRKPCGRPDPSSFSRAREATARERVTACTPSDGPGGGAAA
Description: Displacement of [3H]diprenorphine from human cloned delta type opioid receptor expressed in CHO cell membranes by scintillation counter

[7] = test system: Rattus norvegicus; assay: In vivo receptor occupancy of NOP receptor in po dosed Harlan Sprague-Dawley rat hypothalamus co-administered with unlabeled tracer compound at 3 ug/kg, iv; format: functional

Row | Structure (SMILES) | SUV [1] | logD ([2]; read-out: logD) | SUV [3] | Ki [4] | Ki [5] | Ki [6] | ED50 [7] | logD [2]
1 | CC(C)N(C)C(=O)[C@@H](Cc1ccccc1F)CN1CCC2(CC1)OCCc1cc(F)sc12 | 143% | 4.47 | – | – | – | – | – | –
2 | O=C1NCN(c2ccccc2)C12CCN([C@H]1CC[C@@H]3CCCc4cccc1c43)CC2 | – | 3.46 | – | – | – | – | – | –
3 | CNC(=O)Cn1c(=O)n(C2CCN([C@@H]3Cc4cccc5cccc3c45)CC2)c2ccccc21 | – | – | 0% | – | – | – | – | –
4 | COC(=O)CN1CN(c2ccccc2)C2(CCN(Cc3cccc4ccccc34)CC2)C1=O | – | 3.85 | 6% | – | – | – | – | –
5 | CN(C)C(=O)C(Cc1cscn1)CN1CCC2(CC1)OCc1ccc(F)cc12 (configuration not stated) | – | 2.02 | 25% | > 400 nM | > 400 nM | > 400 nM | – | –
6 | CNC(=O)C(Cc1ccccc1Cl)CN1CCC2(CC1)OCCc1cc(Cl)sc12 (configuration not stated) | – | 3.77 | 87% | – | – | – | – | –
7 | NC(=O)C(Cc1ccccc1Cl)CN1CCC2(CC1)OCCc1cc(Cl)sc12 (configuration not stated) | – | 4.58 | 145% | – | – | – | – | –
8 | CN(C)C(=O)[C@@H](Cc1ccccc1F)CN1CCC2(CC1)OCCc1cc(F)sc12.O=C(O)C(O)C(O)C(=O)O | 154% | 3.89 | – | > 400 nM | > 400 nM | > 400 nM | – | –
9 | Cc1cccc2c1CC[C@H](CN1CCC(c3c(Cl)cccc3Cl)CC1)C[C@@H]2O | – | 3.56 | 130% | > 400 nM | > 400 nM | > 400 nM | 6.9 mg/kg | –
10 | CN(C)C(=O)C(CN1CCC2(CC1)OCCc1ccsc12)Cn1cccn1 (racemic) | – | – | – | > 400 nM | > 400 nM | > 400 nM | – | –
11 | CN(C)C(=O)C(Cc1ccccc1Cl)CN1CCC2(CC1)OCCc1ccsc12 (racemic) | – | – | – | > 400 nM | > 400 nM | > 400 nM | – | –
12 | CN(C)C(=O)C(Cc1ccccc1F)CN1CCC2(CC1)OCCc1ccsc12 (racemic) | – | – | – | > 400 nM | > 400 nM | > 400 nM | – | –
13 | CN(C)C(=O)C(Cc1c(F)cccc1F)CN1CCC2(CC1)OCCc1ccsc12 (racemic) | – | – | – | > 400 nM | > 400 nM | > 400 nM | – | –
14 | CN(C)C(=O)C(CN1CCC2(CC1)OCCc1cc(F)sc12)Cn1cccn1.O=C(O)C(O)C(O)C(=O)O (single isomer, unassigned; (+)) | – | 2.84 | 65% | – | – | – | – | –
15 | CN(C)C(=O)C(Cc1ccccc1F)CN1CCC2(CC1)OCCc1cc(Cl)sc12.O=C(O)C(O)C(O)C(=O)O (single isomer, unassigned; (+)) | – | 4.27 | 88% | > 400 nM | > 400 nM | > 400 nM | – | –
16 | CN(C)C(=O)C(Cc1ccccc1Cl)CN1CCC2(CC1)OCCc1cc(F)sc12 (single isomer, unassigned; (+)) | 208% | 4.38 | – | > 400 nM | > 400 nM | > 400 nM | – | –
17 | CN(C)C(=O)C(CN1CCC2(CC1)OCCc1ccsc12)Cn1cccn1.O=C(O)C(O)C(O)C(=O)O (single isomer, unassigned; (-)) | – | 2.03 | 15% | – | – | – | – | –
18 | CN(C)C(=O)C(Cc1ccccc1Cl)CN1CCC2(CC1)OCCc1cc(Cl)sc12.O=C(O)C(O)C(O)C(=O)O (single isomer, unassigned; (-)) | – | 4.61 | 75% | > 400 nM | > 400 nM | > 400 nM | – | –
19 | CNC(=O)C(Cc1ccccc1F)CN1CCC2(CC1)OCCc1cc(Cl)sc12 (single isomer, unassigned; (-)) | – | 4.19 | 46% | – | – | – | – | –
20 | CNC(=O)C(Cc1ccccc1Cl)CN1CCC2(CC1)OCCc1cc(F)sc12 (single isomer, unassigned; (-)) | 154% | 3.9 | – | – | – | – | – | –
21 | CN(C(=O)C(Cc1ccccc1F)CN1CCC2(CC1)OCCc1cc(F)sc12)C1CC1 (single isomer, unassigned; (-)) | – | 4.77 | 82% | – | – | – | – | –
22 | CN(C(=O)C(Cc1ccccc1Cl)CN1CCC2(CC1)OCCc1cc(F)sc12)C1CC1 (single isomer, unassigned; (-)) | – | 5.52 | 72% | – | – | – | – | –
23 | CNC(=O)[C@@H](Cc1ccccc1F)CN1CCC2(CC1)OCCc1cc(F)sc12 [NOP-1A] | 124% | – | – | – | – | – | – | 3.5
